Measured values: US20080019968A1, “DETECTION, PREVENTION AND TREATMENT OF BREAST CANCER” (The scripps Reasearch Institute, priority 2004, published 2008)

How the values were obtained:
[1] = system: Human anti-HIV 2G12 monoclonal antibody; assay: Glycan array binding of 2G12; settings: 2G12 (30 μg/mL) pre-complexed with goat anti-human-IgG-FITC (15 μg/mL)
Source text: Glycan array fabrication.
Glycan Binding Protein binding assay.
Image acquisition and signal processing. […] Data were plotted using MS Excel software.

[2] = system: antibodies in sera of metastatic breast cancer patients; assay: Glycan array binding of sera of metastatic breast cancer patients; parameters: species or system human; settings: sera diluted 1:25; for binding of antibodies from breast cancer patients to glycans: 9 metastatic breast cancer patients, IgG, IgM and IgA detected; for level of serum antibodies against the glycan in MBC patients compared to healthy individuals: 9 MBC patients vs ten healthy individuals
Experimental: Individual (not pooled) sera were collected from 9 patients who were diagnosed with metastatic breast cancer (MBC). Blood samples were collected before treatment, so that therapeutic intervention would not interfere with patient immune responses. One patient with breast cancer but with good prognosis (IDC, Stage 1) was also included in the study. As control, or “healthy” sera, sera from ten healthy individuals, 5 female and 5 male, with no known malignancies was collected.
Sera were diluted 1:25 with PBS containing 3% BSA, and placed on the glycan array slide in humidified chamber at room temperature for 90 min. The glycan array slide was then rinsed gently with PBS/0.05% Tween, incubated with biotinylated goat antibody against human IgG, IgM and IgA, rinsed in PBS/0.05% Tween, and incubated with streptavidin-Alexa488 fluorescent dye. Following rinses in PBS/0.05% Tween and H2O, glycan array slides were dried and scanned using the commercial DNA array scanner. […] Signal to background was typically greater 50:1 and no background subtractions were performed. Data were plotted using MS Excel software.

chST6GalNAc-I = molecular target: T1, chST6GalNAc-I (Gallus gallus, UniProt Q92183); assay: chST6GalNAc-I activity on small acceptor molecules; type: biochemical, chicken; settings: α-D-galacto derivatives as acceptors
T1 construct: made in house; host or cells: insect cells
T1 sequence (Q92183 whole entry): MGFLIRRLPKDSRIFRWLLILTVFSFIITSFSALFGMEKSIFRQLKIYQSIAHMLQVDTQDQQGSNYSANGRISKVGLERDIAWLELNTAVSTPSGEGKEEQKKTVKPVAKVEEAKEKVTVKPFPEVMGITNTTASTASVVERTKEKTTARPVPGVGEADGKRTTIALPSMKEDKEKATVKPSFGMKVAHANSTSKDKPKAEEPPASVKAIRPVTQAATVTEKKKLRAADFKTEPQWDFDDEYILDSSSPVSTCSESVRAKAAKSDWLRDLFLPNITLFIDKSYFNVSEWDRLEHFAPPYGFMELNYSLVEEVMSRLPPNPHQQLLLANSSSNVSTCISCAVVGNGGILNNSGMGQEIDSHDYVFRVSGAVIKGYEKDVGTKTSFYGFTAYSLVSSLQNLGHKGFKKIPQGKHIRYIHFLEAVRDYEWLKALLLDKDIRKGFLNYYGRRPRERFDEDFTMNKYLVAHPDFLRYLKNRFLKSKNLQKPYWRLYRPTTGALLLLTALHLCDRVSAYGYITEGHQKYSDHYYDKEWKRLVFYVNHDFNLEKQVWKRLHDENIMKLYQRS
Source text: The inventors have previously reported the cloning, expression, and characterization of chicken ST6GalNAc-I and its use in preparative synthesis of the O-linked sialoside antigens, STn-, α(2-6)SiaT-, α(2-3)SiaT- and Di-SiaT-antigen. Blixt, O.; Allin, K.; Pereira, L.; Datta, A. and Paulson, J. C., J. Am. Chem. Soc. 2002, 124, 5739-5746. Briefly, the recombinant enzyme was expressed in insect cells and purified by CDP-sepharose affinity chromatography to generate approximately 10 U/L of cell culture.

Con A = Con A (Canavalia ensiformis, UniProt P02866); settings: printing times up to 5 hours
Experimental: Glycan Binding Protein binding assay. Printed slides were analyzed without any further modification of the surface. Slides were incubated in either a one step procedure with labeled proteins, or a sandwich procedure in which the bound glycan binding protein (GBP) was overlaid with labeled secondary antibodies or GBP's pre-complexed with labeled antibodies. GBP's were added at a concentration of 5-50 μg/mL in buffer (usually PBS containing 0.005-0.5% Tween-20). Secondary antibodies (10 μg/mL in PBS) were overlaid on bound GBP. GBP-antibody pre-complexes were prepared in a molar ratio of 1:0.5:0.25 (5-50 μg/mL) for GBP:2° antibody:3° antibody, respectively (15 min on ice). […] Slides were subsequently washed by successive rinses in (i) PBS-Tween (0.05%), (ii) PBS and (iii) de-ionized water, then immediately subjected to imaging.
Image acquisition and signal processing. Fluorescence intensities were detected using a ScanArray 5000 (Perkin Elmer, Boston, Mass.) confocal scanner and image analyses were carried out using ImaGene image analysis software (BioDiscovery Inc, El Segundo, Calif.).
Binding of fluorescein-labeled concanavalin A (con A) was used as a measure of ligand coupling.

Molecule | binding of antibodies from breast cancer patients to glycans [2] | also measured
Man-9#aa Man9-aminoacid [glycan 145] |  | binding of 2G12 to glycans on the array [1]: smaller level of binding
(Ab4GNb)3#sp1 Tri-LacNAc [glycan 9] | will also bind | 
Ab3ANb4[NNa3]Ab4Gb#sp1 GM1 [glycan 58] | bind | level of serum antibodies against the glycan in MBC patients compared to healthy individuals [2]: higher than in the healthy individuals
Ab4GNb3Ab4[Fa3]GNb3Ab4[Fa3]GNb#sp1 LacNAc-LeX-LeX [glycan 73] | will also bind | 
NNa6Ab4GNb3Ab4[Fa3]GNb3Ab4[Fa3]GNb#sp1 6Sia-LacNAc-LeX-LeX [glycan 188] | will also bind | 
NNa6ANa#sp2 6SiaβGalNAc [glycan 190] | bind | level of serum antibodies against the glycan in MBC patients compared to healthy individuals [2]: significantly higher levels
NNa3Ab4[Fa3]GNb3Ab4GNb#sp1 SLeXLacNAc [glycan 174] | will also bind | 
Fa2Ab4GNb3Ab4GNb#sp1 H-type-2-LacNAc [glycan 106] | will also bind | 
CC(=O)N[C@H]1C(O)O[C@H](CO)[C@H](O)[C@@H]1O (stereo partly drawn) [D-GalNAc] |  | chST6GalNAc-I activity, cpm (chST6GalNAc-I): 0 cpm; chST6GalNAc-I activity, nmol/mg x min^−1 (chST6GalNAc-I): 0.00 nmol/mg x min^−1
Fa2Ab4GNb3Ab4GNb3Ab4GNb#sp1 H-type2-LacNAc-LacNAc [glycan 107] | will also bind | 
Ab4GNb3Ab4GNb#sp1 LacNAc-LacNAc [glycan 76] | will also bind | 
GNb3Ab4Gb#sp1 LNT-2 [glycan 123] | bind | level of serum antibodies against the glycan in MBC patients compared to healthy individuals [2]: higher than in the healthy individuals
Ma2Ma3[Ma2Ma6]Ma#sp3 [glycan 136] |  | variation in maximal binding of con A (Con A): less than 10%; binding of 2G12 to glycans on the array [1]: strong binding; Rel. spec. (relative binding activity of 2G12) ([1]; mannose containing glycans on the array): +++ (+++ >25,000)
NNa3Ab4GNb3Ab4GNb#sp1 3′SialylDiLacNAc [glycan 179] | will also bind | 
Fa2Ab3Anb3Aa4Ab4G#sp3 Globo-H [glycan 97] | bind | level of serum antibodies against the glycan in MBC patients compared to healthy individuals [2]: higher than in the healthy individuals
NNa6Ab4GNb3Ab4GNb#sp1 6SiaLacNAc-LacNAc [glycan 189] | will also bind | 
NJa6ANa#sp2 Neu5Gc6GalNAc (STn) [glycan 155] | bind | 
NNa3Ab4GNb3Ab4GNb3Ab4GNb#sp1 3′Sialyl-tri-LacNAc [glycan 180] | will also bind | 
GNb3Ab4GNb#sp1 GlcNAcβ3LacNAc [glycan 124] | will also bind | 
Ceruloplasmine (protein, UniProt P00450 20-1065, looked up) Ceruloplasmin: KEKHYYIGIIETTWDYASDHGEKKLISVDTEHSNIYLQNGPDRIGRLYKKALYLQYTDETFRTTIEKPVWLGFLGPIIKAETGDKVYVHLKNLASRPYTFHSHGITYYKEHEGAIYPDNTTDFQRADDKVYPGEQYTYMLLATEEQSPGEGDGNCVTRIYHSHIDAPKDIASGLIGPLIICKKDSLDKEKEKHIDREFVVMFSVVDENFSWYLEDNIKTYCSEPEKVDKDNEDFQESNRMYSVNGYTFGSLPGLSMCAEDRVKWYLFGMGNEVDVHAAFFHGQALTNKNYRIDTINLFPATLFDAYMVAQNPGEWMLSCQNLNHLKAGLQAFFQVQECNKSSSKDNIRGKHVRHYYIAAEEIIWNYAPSGIDIFTKENLTAPGSDSAVFFEQGTTRIGGSYKKLVYREYTDASFTNRKERGPEEEHLGILGPVIWAEVGDTIRVTFHNKGAYPLSIEPIGVRFNKNNEGTYYSPNYNPQSRSVPPSASHVAPTETFTYEWTVPKEVGPTNADPVCLAKMYYSAVEPTKDIFTGLIGPMKICKKGSLHANGRQKDVDKEFYLFPTVFDENESLLLEDNIRMFTTAPDQVDKEDEDFQESNKMHSMNGFMYGNQPGLTMCKGDSVVWYLFSAGNEADVHGIYFSGNTYLWRGERRDTANLFPQTSLTLHMWPDTEGTFNVECLTTDHYTGGMKQKYTVNQCRRQSEDSTFYLGERTYYIAAVEVEWDYSPQREWEKELHHLQEQNVSNAFLDKGEFYIGSKYKKVVYRQYTDSTFRVPVERKAEEEHLGILGPQLHADVGDKVKIIFKNMATRPYSIHAHGVQTESSTVTPTLPGETLTYVWKIPERSGAGTEDSACIPWAYYSTVDQVKDLYSGLIGPLIVCRRPYLKVFNPRRKLEFALLFLVFDENESWYLDDNIKTYSDHPEKVNKDDEEFIESNKMHAINGRMFGNLQGLTMHVGDEVNWYLMGMGNEIDLHTVHFHGHSFQYKHRGVYSSDVFDIFPGTYQTLEMFPRTPGIWLLHCHVTDHIHAGMETTYTVLQNEDTKSG | bind | level of serum antibodies against the glycan in MBC patients compared to healthy individuals [2]: significantly higher levels
